Source: ChEMBL document CHEMBL4715863, “Chemistry and Biology of Natural Azoxy Compounds” (J Nat Prod, 2020)
Values after ≈ are worked out from the molar mass of the structure shown.

Key:
KB = test: Cytotoxicity against human KB cells; assay type: functional, cell-based
Escherichia coli = test: Antibacterial activity against Escherichia coli BE1121 by paper disc-agar diffusion method; assay type: functional

SMILES	IC50 (KB) [nM]	MIC (Escherichia coli) [µg/mL]
[O-]/[N+](CCCCCCCCCC/C=C\CCc1cccnc1)=N\CCCCCCCCCC/C=C\CCc1cccnc1	1700	
C=C(/N=[N+](\[O-])CC(C)C)C(=O)O		0.078 (≈ 0.453 µM)
